Assay [1] concerns the target T1, human α7β2‐nAChR (Homo sapiens, UniProt P17787+P36544).
T1 construct: expressed in transfected cells; host or cells: Xenopus laevis oocytes, cRNA injection
The experiment in a line: cell-based. As to conditions: SEM.

The target of assay [2] is T2, human α7‐only‐nAChR (Homo sapiens, UniProt P36544).
T2 construct: expressed in transfected cells; host or cells: Xenopus laevis oocytes, cRNA injection
The experiment in a line: cell-based. The following applies: SEM.

The term Kd denotes the constant that tells how readily two partners part at equilibrium. Low readings indicate tighter binding, high ones weaker binding.

T1 sequence (P36544 23-502 limits assumed): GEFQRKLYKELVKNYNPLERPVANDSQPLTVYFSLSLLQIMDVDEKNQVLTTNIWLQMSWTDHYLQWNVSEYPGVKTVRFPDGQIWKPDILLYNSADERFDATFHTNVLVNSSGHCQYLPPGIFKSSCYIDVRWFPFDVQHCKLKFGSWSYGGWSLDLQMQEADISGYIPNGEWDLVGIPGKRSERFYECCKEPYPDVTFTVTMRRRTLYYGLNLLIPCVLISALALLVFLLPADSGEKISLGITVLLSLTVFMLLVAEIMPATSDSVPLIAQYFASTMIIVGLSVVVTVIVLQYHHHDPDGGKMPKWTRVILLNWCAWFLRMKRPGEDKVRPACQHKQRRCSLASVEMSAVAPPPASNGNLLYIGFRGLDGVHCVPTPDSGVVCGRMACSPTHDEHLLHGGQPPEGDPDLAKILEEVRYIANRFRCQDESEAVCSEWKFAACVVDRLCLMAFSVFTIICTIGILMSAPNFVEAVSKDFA
T1 sequence (P17787 26-502 limits assumed): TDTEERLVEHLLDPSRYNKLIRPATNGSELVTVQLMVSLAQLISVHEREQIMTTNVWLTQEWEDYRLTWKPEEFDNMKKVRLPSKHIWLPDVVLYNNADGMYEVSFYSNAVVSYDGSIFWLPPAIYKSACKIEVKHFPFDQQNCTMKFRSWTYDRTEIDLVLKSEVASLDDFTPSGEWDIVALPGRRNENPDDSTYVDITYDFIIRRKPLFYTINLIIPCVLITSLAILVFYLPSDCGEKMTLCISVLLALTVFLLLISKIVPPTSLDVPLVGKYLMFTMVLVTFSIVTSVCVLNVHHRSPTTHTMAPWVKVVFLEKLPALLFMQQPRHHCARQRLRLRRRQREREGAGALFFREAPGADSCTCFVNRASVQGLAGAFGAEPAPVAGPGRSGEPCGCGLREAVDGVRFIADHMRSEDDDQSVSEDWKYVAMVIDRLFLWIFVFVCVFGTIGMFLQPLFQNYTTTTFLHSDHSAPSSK
T2 sequence (P36544 23-502 limits assumed): as the sequence (P36544 23-502 limits assumed) above

Take `CC(C)C[C@@H]1NC(=O)[C@H](Cc2ccccc2)NC(=O)[C@@H]2CSSC[C@H](NC(=O)CN)C(=O)N[C@@H](CSSC[C@@H](C(N)=O)NC(=O)[C@H](Cc3ccc(O)cc3)NC(=O)[C@H](CC(=O)O)NC(=O)[C@@H]3CCCN3C(=O)[C@H](CC(N)=O)NC(=O)[C@H](CC(N)=O)NC1=O)C(=O)N[C@@H](CO)C(=O)N[C@@H](Cc1c[nH]cn1)C(=O)N1CCC[C@H]1C(=O)N1CCC[C@H]1C(=O)N2` [α‐CtxPnIC, α‐conotoxin PnIC]: the results for the Kd in assay [1] (K d α7β2) and in assay [2] were 3.3 ± 0.6 nM and 1.9 ± 0.4 nM, respectively. Moreover, the koff in assay [1] (read-out: k off α7β2) was 0.000119 s⁻¹; in assay [2] (read-out: k off α7‐only) it was 0.000122 s⁻¹. Also, the kon in assay [1] (read-out: k on α7β2) was 37200 M⁻¹ s⁻¹; in assay [2] (read-out: k on α7‐only), 68700 M⁻¹ s⁻¹.

(Values after paper PMC10782225 (The FASEB Journal, 2023).)
